From PubChem BioAssay (NCI)
Values joined by “and” are separate entries in the source; they are usually repeats but may differ in a detail not shown here. Equal entries are not always repeated.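 Where inhibition never reached the appropriate level, the endpoint shown equals the highest concentration tested. Otherwise, values were interpolated linearly from a five-concentration, 48-hour dose response in 96-well plates. GI50 marks 50% less growth. TGI: concentration producing complete growth inhibition.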

Key:
Test in all cases: NCI-60 cell line screen, 48 h
OVCAR-8 ovarian = system: OVCAR-8 ovarian
K-562 leukemia = system: K-562 leukemia
OVCAR-5 ovarian = system: OVCAR-5 ovarian
KM12 colon = system: KM12 colon
HOP-92 NSCLC = system: HOP-92 NSCLC
HT29 colon = system: HT29 colon
COLO 205 colon = system: COLO 205 colon
HOP-62 NSCLC = system: HOP-62 NSCLC
SN12C renal = system: SN12C renal

Row | Compound | TGI (OVCAR-8 ovarian) [µM] | TGI (K-562 leukemia) [µM] | TGI (OVCAR-5 ovarian) | TGI (KM12 colon) | TGI (HOP-92 NSCLC) [µM] | TGI (HT29 colon) | TGI (COLO 205 colon) | TGI (HOP-62 NSCLC) | TGI (SN12C renal) | GI50 (OVCAR-8 ovarian) [µM] | GI50 (K-562 leukemia) [µM] | GI50 (OVCAR-5 ovarian) [µM] | GI50 (KM12 colon) [µM] | GI50 (HOP-92 NSCLC) [µM] | GI50 (HT29 colon) [µM] | GI50 (COLO 205 colon) [µM] | GI50 (HOP-62 NSCLC) [µM] | GI50 (SN12C renal) [µM]
1 | O=C(O)CCCCCO | > 100 | > 100 | > 100 µM | > 100 µM | > 100 | > 100 µM | > 100 µM | > 100 µM | > 100 µM |  |  |  |  |  |  |  |  | 
2 | COc1cc([C@@H]2c3cc4c(cc3[C@@H](NCc3ccccc3)C3COC(=O)[C@@H]32)OCO4)cc(OC)c1O (some centres not stated) | 51.7 | > 79.1 | > 66.6 µM | 49.3 µM | 37.9 | 60.1 µM | > 89 µM | 9.63 µM | 18.8 µM |  |  |  |  |  |  |  |  | 
3 | Cc1ccc(S(=O)(=O)SCc2ccccc2CSS(=O)(=O)c2ccc(C)cc2)cc1 | 76.5 | 47 |  | > 100 µM | 51.7 | 52.9 µM | 31.1 µM | > 100 µM | 33.6 µM |  |  |  |  |  |  |  |  | 
4 | O=C1[C@@H]2C3SC(c4ccccc43)[C@@H]2C(=O)N1c1ccccc1 | > 100 | > 100 | > 100 µM | > 100 µM | > 100 | > 100 µM | > 100 µM | > 100 µM | > 100 µM |  |  |  |  |  |  |  |  | 
5 | NCCCC1NC(=O)/C(=C(O)/C=C/C2CCC[C@@H]2CC2SCCS2)C1=O (some centres not stated) | > 100 | > 100 | > 100 µM | > 100 µM | 99.8 | > 100 µM | > 100 µM | > 100 µM | > 100 µM |  |  |  |  |  |  |  |  | 
6 | CCc1ccc(Nc2cc(=O)[nH]c(=S)n2C)cc1 | > 100 | > 100 | > 100 µM | > 100 µM | > 100 | > 100 µM | > 100 µM | > 100 µM | > 100 µM |  |  |  |  |  |  |  |  | 
7 | COc1ccc2nc(NC(=O)C(=O)C(C(=O)c3ccccc3-c3ccccc3)C3OC(=O)c4ccccc43)sc2c1 (configuration not stated) | 59.3 | > 100 | 35.9 µM | 54.9 µM | 35.2 | > 100 µM | 39.6 µM | 35.3 µM |  |  |  |  |  |  |  |  |  | 
8 | Nc1ccc2c(c1)CC1c3ccccc3C(C2)c2ccccc21 | > 100 | > 100 | > 100 µM | > 100 µM | > 100 | > 100 µM | > 100 µM | > 100 µM | > 100 µM |  |  |  |  |  |  |  |  | 
9 | CCC[CH2][Ge]([CH2]CCC)([CH2]CCC)[O]C(=O)C(OC)c1ccccc1 (configuration not stated) | > 100 | > 100 | > 78.3 µM | > 100 µM | 98.3 | > 100 µM | > 100 µM | > 70.6 µM | > 100 µM | 70.2 | 2.07 | 31.5 | 26.4 | 9.53 | 25.4 | 45.8 | 20.6 | 46.4
10 | CN(C)CC/C(=N\Nc1ccc(Cl)c(Cl)c1)c1ccccc1 | 3.96 | 4.68 | 6.34 µM | 3.92 µM |  | 4.05 µM | 3.15 µM | 6.09 µM | 5.26 µM |  |  |  |  |  |  |  |  | 
11 | COc1c(NC(=O)CC(C)=O)[c]([Hg][O]C(C)=O)c(OC)c(Cl)[c]1[Hg][O]C(C)=O | 36.3 | 41.1 | 40.4 µM | 26.7 µM | 11.6 | 32.6 µM |  | 36.6 µM | 29.8 µM | 17.8 | 8.46 | 25.7 | 13.8 | 4.13 | 11.3 |  | 20.2 | 15.4
12 | Cc1ccc(NC(=O)CC/C(CC(=O)c2ccc(F)cc2)=N\NC(=O)C(=O)NN)cc1C | > 100 | > 100 | > 100 µM | > 100 µM | > 100 | > 100 µM | > 100 µM | > 100 µM | > 100 µM |  |  |  |  |  |  |  |  | 
13 | COc1cc(C(=O)C/C(CCC(=O)Nc2ccc(Cl)cc2Cl)=N/NC(=O)C(N)=O)ccc1O | > 100 | > 100 | > 100 µM | > 100 µM | > 100 | > 100 µM | > 100 µM | > 100 µM | > 100 µM |  |  |  |  |  |  |  |  | 
14 | CCOC(=O)N1N=NC2C3OC(C[C@@]3(C#N)OC(C)=O)[C@H]21 (some centres not stated) | > 100 | > 100 | > 100 µM | > 100 µM | > 100 | > 100 µM | > 100 µM | > 100 µM | > 100 µM |  |  |  |  |  |  |  |  | 
15 | N#CCN1CCOCCOCCN(CC#N)CCOCCOCC1 | > 100 | > 100 | > 100 µM |  | > 100 | > 100 µM | > 100 µM | > 100 µM | > 100 µM |  |  |  |  |  |  |  |  | 
16 | CCOC(=O)[C@H]1Nc2ccc(Cl)cc2[C@H]2OCC[C@@H]12 | > 100 | > 100 | > 100 µM | > 100 µM |  | > 100 µM | > 100 µM | > 100 µM | > 100 µM |  |  |  |  |  |  |  |  | 

Row | Compound | TGI (OVCAR-8 ovarian) [µM] | TGI (K-562 leukemia) [µM] | TGI (OVCAR-5 ovarian) | TGI (KM12 colon) | TGI (HOP-92 NSCLC) [µM] | TGI (HT29 colon) | TGI (COLO 205 colon) | TGI (HOP-62 NSCLC) | TGI (SN12C renal) | GI50 (OVCAR-8 ovarian) [µM] | GI50 (K-562 leukemia) [µM] | GI50 (OVCAR-5 ovarian) [µM] | GI50 (KM12 colon) [µM] | GI50 (HOP-92 NSCLC) [µM] | GI50 (HT29 colon) [µM] | GI50 (COLO 205 colon) [µM] | GI50 (HOP-62 NSCLC) [µM] | GI50 (SN12C renal) [µM]
17 | Nc1nc(N)c(N=O)c(Nc2ccc(I)cc2)n1 | > 100 | > 100 | 61 µM | > 100 µM |  |  | 33.2 µM | 51.1 µM | 49.2 µM |  |  |  |  |  |  |  |  | 
18 | CCC[CH2][Sn]([CH2]CCC)([O]C(=O)c1cc(OC)c(OC)cc1OC)[O]C(=O)c1cc(OC)c(OC)cc1OC | 3.03 | 2.97 | 4.33 µM | 4.07 µM |  | 4.67 µM | 2.6 µM | 4.41 µM | 3.29 µM | 1.48 | 0.324 | 2.27 | 1.75 |  | 1.96 | 1.25 | 2.35 | 1.52
19 | Cc1c(C(=O)/C=C/c2ccccc2Cl)[n+](=O)c2ccccc2n1[O-] | 26.1 | 26.5 | 35.7 µM | 27.3 µM | 28.7 | 33.8 µM | 28.8 µM | 34.2 µM | 28.4 µM |  |  |  |  |  |  |  |  | 
20 | CCC[CH2][Ge]([CH2]CCC)([CH2]CCC)[O]C(=O)C(O)c1ccccc1 (configuration not stated) | 22.4 | 19.9 | 21.7 µM | 17.4 µM | 15.8 | 20.8 µM | 12 µM | 23.4 µM | 23.4 µM | 10.6 | 0.443 | 6.27 | 2.96 | 0.49 | 3.32 | 2.33 | 9.67 | 4.58
21 | CC(=O)Nc1ccccc1-c1cnc2ccccc2n1 | > 100 | > 100 | > 100 µM | > 100 µM | > 100 | > 100 µM | > 100 µM | > 100 µM | > 100 µM |  |  |  |  |  |  |  |  | 
22 | O=C(/C=C/c1ccccc1O)c1cccnc1 | > 100 | > 100 | > 100 µM | > 100 µM |  | > 100 µM |  | > 100 µM | > 100 µM |  |  |  |  |  |  |  |  | 
23 | COc1cc2ccnc(-c3c4ccccc4c(N)c4c(OC)c(OC)ccc34)c2cc1OC |  | 7.98 |  | 11.3 µM | 9.35 | 11.7 µM | 3.09 µM | 14.9 µM | 14.1 µM |  |  |  |  |  |  |  |  | 
24 | COc1cc2c(c(OC)c1OC)-c1ccc(SC)c(=O)cc1[C@@H](NCc1cccc(C#N)c1)CC2 |  | 18.2 | > 75 µM | 0.0509 µM and 0.0128 µM | > 75 | 0.0348 µM and < 0.0075 µM | 0.0593 µM and < 0.0075 µM | > 75 µM | 66.1 µM | < 0.0075 | < 0.0075 | > 75 | < 0.0075 | < 0.0075 | < 0.0075 | < 0.0075 | < 0.0075 | < 0.0075
25 | CC(=O)OCC1OC(n2c(=O)n(-c3ccccc3)c(=O)c3cc(Br)cc(Br)c32)C(OC(C)=O)C(OC(C)=O)C1OC(C)=O (configuration not stated) | > 100 | > 100 | > 100 µM | > 100 µM | > 100 | > 100 µM | > 100 µM | > 100 µM | > 100 µM |  |  |  |  |  |  |  |  | 
26 | Cc1nc(-c2nc(C)c(C(=O)NN(C)C)s2)sc1C(=O)NN(C)C | > 100 | > 100 | > 100 µM | > 100 µM | > 100 | > 100 µM | 53.9 µM | > 100 µM | > 100 µM |  |  |  |  |  |  |  |  | 
27 | Cc1ccccc1-c1c(N)nc(N)nc1C(=O)Nc1nccs1 | > 100 | > 100 | > 100 µM | > 100 µM | > 100 | > 100 µM | > 100 µM | > 100 µM | > 100 µM |  |  |  |  |  |  |  |  | 
28 | CCC1(C(=O)OC)CCc2c(OC)ccc(OC)c2C1=O (configuration not stated) | > 100 | > 100 | > 100 µM | > 100 µM |  | > 100 µM | > 100 µM | > 100 µM | > 100 µM |  |  |  |  |  |  |  |  | 
29 | CC(=O)C1C(=O)C(=O)N(c2ccccc2N2C(=O)C(=O)C(C(C)=O)C2=O)C1=O (configuration not stated) | > 100 | > 100 | > 100 µM | > 100 µM | > 100 | > 100 µM | > 100 µM | > 100 µM | > 100 µM |  |  |  |  |  |  |  |  | 
30 | Nc1ncnc2c(C3OC(CO)C(O)C3O)scc12 (configuration not stated) |  | 0.03 | 0.787 µM and 0.139 µM | 0.026 µM | 0.529 | 1.12 µM | 1.15 µM and 1.23 µM | 2.02 µM and 3.02 µM | 4.93 µM and 4.07 µM |  |  |  |  |  |  |  | 0.12 | 0.105
31 | O=C(CC(=O)Nc1ccccc1O)Nc1ccccc1O | > 100 | 25.7 | > 100 µM | > 100 µM | > 100 | > 100 µM | 33.2 µM | > 100 µM | 33.8 µM |  |  |  |  |  |  |  |  | 
32 | COc1cc(/C=C/c2ccc(OC(C)=O)cc2)cc(OC)c1OC | > 100 | > 100 | 68.6 µM | > 100 µM | 80.2 | > 100 µM | 67.2 µM | > 100 µM | > 100 µM |  |  |  |  |  |  |  |  | 
